Laboratory results reported in patent US20240090547A1, “SWEETENER COMPOSITIONS COMPRISING MOGROSIDES AND USES THEREOF” (Firmenich Incorporated, priority 2021, published 2024).

Experiments:
Format in all cases: in vivo, human
panel of volunteers [1] = assay: Sensory testing for apple drink (panel, in-mouth and aftertaste attributes); parameters: key to Sweetness / Delayed Sweetness / Bitterness / Lingering Sweetness / Overall Off-Taste / Licorice Aftertaste / Bitterness Aftertaste / Mouth Coating: 10-point scale; normalized per attribute to average Reb M scores; conditions: 10-point scale; for Bitterness / Delayed Sweetness / Global Flavor Intensity / Sweetness / Thickness/Body: in-mouth, average normalized score
Procedure: (§1) A panel of volunteers evaluated siamenoside I for in-mouth attributes (sweetness, delayed sweetness, sourness, bitterness, global flavor intensity, thickness/body, and astringence) and aftertaste (AT) attribtues (lingering sweetness, overall off-taste intensity, licorice off-tast, bitterness off-taste, and mouth coating) on a 10-point scale. Two replicate sessions were conducted, with a 20 minute break between sessions. There was a 90 second delay between samples within a session. Panelists evaluated all samples in a first session and evaluated the samples again a second time in a second session. Control samples of Rebaudioside M (Reb M) were evaluated during all sessions as a control. Mogroside V was also evaluated and sensory data for mogroside V is provided.
(§2) Data analysis was performed using 2-way analysis of variance (ANOVA) with interaction using Tukey's HSD test. The data was normalized for each attribute according to average scores for Reb M.
The average normalized in-mouth attributes for each sample of apple drink containing siamenoside I was evaluated below.
The average sweetness for each sample of apple drink containing siamenoside I was evaluated below.

panel of volunteers [2] = assay: Sensory testing for lemon-lime carbonated soft drink; parameters: key to Sweetness / Delayed Sweetness / Bitterness / Lingering Sweetness / Overall Off-Taste / Licorice Aftertaste / Bitterness Aftertaste: 10-point scale; scores normalized to average Reb M scores; conditions: 600 ppm (mogroside V 600 mg [sic]), average normalized score, 10-point scale
Procedure: as §1, §2
A panel of volunteers evaluated the siamenoside I-containing lemon-lime carbonated soft drink for in-mouth attributes and aftertaste attributes according to the methods described in Example 1 above.
The average normalized in-mouth attributes for a sample of lemon-lime carbonated soft drink having […] was evaluated below.
The average normalized aftertaste attributes for a sample of lemon-lime carbonated soft drink having siamenoside I was evaluated below.

panel of volunteers [3] = assay: Sensory testing for sparkling orange beverage; conditions: sparkling orange beverage, 250 ppm (mogroside V 250 mg [sic]), average normalized score, 10-point scale
Procedure: as §1, §2
A panel of volunteers evaluated a sparkling orange beverage containing siamenodie I for in-mouth attributes and aftertaste attributes according to the methods described in Example 1 above.
The average normalized in-mouth attributes for a sample of sparkling orange beverage containing siamenoside I was evaluated and the results are provided below.
The average normalized aftertaste attributes for a sample of sparkling orange beverage containing siamenoside I was evaluated and the results are provided below.

panel of volunteers [4] = assay: Sensory testing for vanilla milk; conditions: average normalized score, 10-point scale; for Licorice Aftertaste / Lingering Sweetness / Mouth Coating / Overall Off-Taste: aftertaste
Procedure: as §1, §2
A panel of volunteers evaluated vanilla milk for in-mouth attributes and aftertaste attributes according to the methods described in Example 1 above.
The average normalized in-mouth attributes for each sample of vanilla milk was evaluated and the results are provided below.
The average normalized aftertaste attributes for each sample of vanilla milk containing siamenoside I was evaluated and the results are provided below.

panel of flavorists [5] = assay: Additional sensory testing for lemon-flavored (lemon-lime) beverage, flavorist panel; conditions: 600 ppm mogrosides, 0 to 10 scale, letter in parentheses = Duncan's test group
Procedure: (§3) A panel of flavorists at three locations evaluated lemon-lime beverage various mogrosides at a concentration of 600 ppm mogrosides for in-mouth attributes (peak sweetness, upfront sweetness, bitterness, and mouthfeel/thickness) and aftertaste attributes (sweet taste linger), on a 0 to 10 scale. The in-mouth attributes were evaluated while holding the sample in the mouth, while the aftertaste attributes were evaluated after expectoration.

panel of flavorists [6] = assay: Additional sensory testing for vanilla milk, flavorist panel; conditions: 400 ppm mogrosides, 0 to 10 scale, letter in parentheses = Duncan's test group
Procedure: as §3, with “vanilla milk containing” for “lemon-lime beverage”, “400” for “600”, “expectoration. The data was analyzed using Duncan's new multiple range test and the scores are provided in the data below in parentheses.” for “expectoration.”

expert panelists = assay: Expert panelists' comparison of mogrosides with stevia; conditions: 'Examples 4 and 5', in words
[7] = 250 ppm (mogroside V 250 mg [sic]), aftertaste
[8] = 250 ppm (mogroside V 250 mg [sic])
[9] = 500 ppm (mogroside V 500 mg [sic]), aftertaste
[10] = 500 ppm (mogroside V 500 mg [sic])
[11] = 200 ppm (mogroside V 200 mg [sic])
[12] = 200 ppm (mogroside V 200 mg [sic]), in-mouth
[13] = 400 ppm (mogroside V 400 mg [sic])
[14] = 400 ppm (mogroside V 400 mg [sic]), in-mouth
[15] = aftertaste, after expectoration

C=C1C[C@@]23CC[C@H]4[C@@](C)(CCC[C@@]4(C)C(=O)O[C@@H]4O[C@H](CO)[C@@H](O)[C@H](O[C@@H]5O[C@H](CO)[C@@H](O)[C@H](O)[C@H]5O)[C@H]4O[C@@H]4O[C@H](CO)[C@@H](O)[C@H](O)[C@H]4O)[C@@H]2CC[C@]1(O[C@@H]1O[C@H](CO)[C@@H](O)[C@H](O[C@@H]2O[C@H](CO)[C@@H](O)[C@H](O)[C@H]2O)[C@H]1O[C@@H]1O[C@H](CO)[C@@H](O)[C@H](O)[C@H]1O)C3 [Reb M, Rebaudioside M]
Bitterness Aftertaste (panel of volunteers [1]; [7]): 1.1
Licorice Aftertaste (panel of volunteers [1]; [7]): 2.0
Lingering Sweetness (panel of volunteers [1]; [7]): 3.7
Overall Off-Taste (panel of volunteers [1]; [7]): 2.9
Bitterness (panel of volunteers [1]; [8]): 1.4
Delayed Sweetness (panel of volunteers [1]; [8]): 2.5
Global Flavor Intensity (panel of volunteers [1]; [8]): 4.0
Sweetness (panel of volunteers [1]; [8]): 4.9
Thickness/Body (panel of volunteers [1]; [8]): 1.5
Licorice Aftertaste (panel of volunteers [1]; [9]): 2.2
Lingering Sweetness (panel of volunteers [1]; [9]): 4.4
Mouth Coating (panel of volunteers [1]; [9]): 2.2
Overall Off-Taste (panel of volunteers [1]; [9]): 3.1
Bitterness (panel of volunteers [1]; [10]): 1.3
Delayed Sweetness (panel of volunteers [1]; [10]): 3.0
Global Flavor Intensity (panel of volunteers [1]; [10]): 4.7
Sweetness (panel of volunteers [1]; [10]): 6.1
Thickness/Body (panel of volunteers [1]; [10]): 1.9
Bitterness Aftertaste (panel of volunteers [2]; aftertaste): 1.4
Licorice Aftertaste (panel of volunteers [2]; aftertaste): 2.5
Lingering Sweetness (panel of volunteers [2]; aftertaste): 4.3
Overall Off-Taste (panel of volunteers [2]; aftertaste): 3.6
Bitterness (panel of volunteers [2]; in-mouth): 1.9
Delayed Sweetness (panel of volunteers [2]; in-mouth): 3.3
Global Flavor Intensity (panel of volunteers [2]; in-mouth): 4.8
Sweetness (panel of volunteers [2]; in-mouth): 6.0
Licorice Aftertaste (panel of volunteers [3]; aftertaste): 2.2
Lingering Sweetness (panel of volunteers [3]; aftertaste): 3.9
Mouth Coating (panel of volunteers [3]; aftertaste): 2.5
Overall Off-Taste (panel of volunteers [3]; aftertaste): 3.3
Delayed Sweetness (panel of volunteers [3]; in-mouth): 3.3
Sweetness (panel of volunteers [3]; in-mouth): 5.8
Licorice Aftertaste (panel of volunteers [4]; [11]): 0.8
Lingering Sweetness (panel of volunteers [4]; [11]): 2.6
Mouth Coating (panel of volunteers [4]; [11]): 3.1
Overall Off-Taste (panel of volunteers [4]; [11]): 1.8
Astringence (panel of volunteers [4]; [12]): 0.6
Delayed Sweetness (panel of volunteers [4]; [12]): 1.7
Fattiness (panel of volunteers [4]; [12]): 3.3
Sourness (panel of volunteers [4]; [12]): 0.7
Sweetness (panel of volunteers [4]; [12]): 4.9
Licorice Aftertaste (panel of volunteers [4]; [13]): 1.3
Lingering Sweetness (panel of volunteers [4]; [13]): 3.8
Mouth Coating (panel of volunteers [4]; [13]): 0.7
Overall Off-Taste (panel of volunteers [4]; [13]): 2.1
Astringence (panel of volunteers [4]; [14]): 0.6
Bitterness (panel of volunteers [4]; [14]): 0.8
Delayed Sweetness (panel of volunteers [4]; [14]): 2.2
Fattiness (panel of volunteers [4]; [14]): 3.8
Global Flavor Intensity (panel of volunteers [4]; [14]): 4.6
Sourness (panel of volunteers [4]; [14]): 0.7
Sweetness (panel of volunteers [4]; [14]): 6.6

C[C@H](CC[C@@H](O[C@@H]1O[C@H](CO[C@H]2O[C@H](CO)[C@@H](O)[C@H](O)[C@H]2O)[C@@H](O)[C@H](O)[C@H]1O[C@@H]1O[C@H](CO)[C@@H](O)[C@H](O)[C@H]1O)C(C)(C)O)[C@H]1CC[C@@]2(C)[C@]3(C)CC=C4[C@@H](CC[C@H](O[C@@H]5O[C@H](CO)[C@@H](O)[C@H](O)[C@H]5O)C4(C)C)[C@]3(C)[C@H](O)C[C@]12C [Siratose]
Sweet Linger (panel of flavorists [5]; [15]): 6.143 (a)
Bitterness (panel of flavorists [5]; in-mouth): 1.357 (a)
Mouthfeel/Thickness (panel of flavorists [5]; in-mouth): 4.143 (a)
Peak Sweetness (panel of flavorists [5]; in-mouth): 8.429 (a)
Upfront Sweetness (panel of flavorists [5]; in-mouth): 6.571 (a)
Sweet Linger (panel of flavorists [6]; [15]): 6.375 (a)
Bitterness (panel of flavorists [6]; in-mouth): 1.750 (a)
Mouthfeel/Thickness (panel of flavorists [6]; in-mouth): 5.375 (a)
Peak Sweetness (panel of flavorists [6]; in-mouth): 8.000 (a)
Upfront Sweetness (panel of flavorists [6]; in-mouth): 6.625 (a)
bitter aftertaste compared with stevia (expert panelists): lower bitter aftertaste
licorice aftertaste compared with stevia (expert panelists): lower licorice aftertaste
mouthfeel compared with stevia (expert panelists): better mouthfeel
